Reference: patent publication US7691885B2, “Pyridones useful as inhibitors of kinases” (Vertex Pharmaceuticals Incorporated, priority 2005, dated 2010)

Target: T1, human Itk kinase (Homo sapiens, UniProt Q08881)
T1 sequence (Q08881 1-620): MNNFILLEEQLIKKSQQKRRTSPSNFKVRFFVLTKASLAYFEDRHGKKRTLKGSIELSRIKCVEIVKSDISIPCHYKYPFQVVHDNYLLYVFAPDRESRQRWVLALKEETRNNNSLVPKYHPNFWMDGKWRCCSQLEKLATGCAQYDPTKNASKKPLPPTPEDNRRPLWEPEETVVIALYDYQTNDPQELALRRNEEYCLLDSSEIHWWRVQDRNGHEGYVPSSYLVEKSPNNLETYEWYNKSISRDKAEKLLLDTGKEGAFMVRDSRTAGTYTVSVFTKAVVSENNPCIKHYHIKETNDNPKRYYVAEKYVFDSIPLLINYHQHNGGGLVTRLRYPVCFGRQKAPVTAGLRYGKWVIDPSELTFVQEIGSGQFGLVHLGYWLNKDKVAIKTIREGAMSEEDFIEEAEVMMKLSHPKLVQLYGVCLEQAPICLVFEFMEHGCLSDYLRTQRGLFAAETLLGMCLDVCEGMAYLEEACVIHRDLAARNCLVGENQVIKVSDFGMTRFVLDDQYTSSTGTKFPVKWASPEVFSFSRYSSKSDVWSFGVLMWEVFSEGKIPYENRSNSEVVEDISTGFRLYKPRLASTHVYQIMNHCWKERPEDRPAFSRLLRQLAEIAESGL
Test: Itk inhibition assay (radioactivity-based or spectrophotometric coupled enzyme assay)
Type: biochemical
Protocol: The compounds of the present invention can be evaluated as inhibitors of human Itk kinase using either a radioactivity-based or spectrophotometric assay. In general, compounds of the invention, including the compound in Table 1, are effective for the inhibition of ITK. Specifically, compound I.1 has a Ki value of <2 uM.
Assays are carried out in a mixture of 100 mM HEPES (pH 7.5), 10 mM MgCl2, 25 mM NaCl, 0.01% BSA and 1 mM DTT. Final substrate concentrations are 15 μM [γ-^33P]ATP (400 μCi ^33P ATP/μmol ATP, Amersham Pharmacia Biotech/Sigma Chemicals) and 2 μM peptide (SAM68 protein Δ332-443). Assays are carried out at 25° C. in the presence of 30 nM Itk. An assay stock buffer solution is prepared containing all of the reagents listed above, with the exception of ATP and the test compound of interest. […]
IC50 data are calculated from non-linear regression analysis of the initial rate data using the Prism software package (GraphPad Prism version 3.0cx for Macintosh, GraphPad Software, San Diego Calif., USA). […]
Ki(app) data are calculated from non-linear regression analysis of the initial rate data using the Prism software package (GraphPad Prism version 3.0cx for Macintosh, GraphPad Software, San Diego Calif., USA). […]

O=c1[nH]cc(-c2ccccc2)cc1-c1cc2ccccc2[nH]1 [Compound I.1, 3-(1H-indol-2-yl)-5-phenylpyridin-2(1H)-one]
Ki: < 2000 nM
